Patent US10472346B2, “Potent gamma-secretase modulators” (The General Hospital Coporation, priority 2014, dated 2019)

System: Aβ42
Assay: Aβ42 IC50 assay (SHSYSY-APP cell-based screening, UCSD sandwich Aβ42 ELISA)
Source text: FIG. 8: Representative concentration response curves of Compound 1 using our primary and orthogonal medium throughput SHSYSY-APP cell-based screening assays (10). Compounds are first screened two times in triplicate in our UCSD sandwich Aβ42 ELISA on sequential days and the average of the two assays must be within 3-fold of each other before being entered into the CDD relational database. The UCSD sandwich ELISA assay can easily handle 20 compounds per week. Compounds with Aβ42 IC50 values <100 nM continue through the testing funnel. The Z′ score and the % CV for the UCSD Aβ42 sandwich ELISA assay are 0.8 and 4, respectively. For the Meso Scale triplex assay the Z′ scores are 0.7, 0.9 and 0.6 Aβ42, Aβ40 and Aβ38, respectively and the % CV's are 7, 2 and 1 for Aβ42, Aβ40 and Aβ38, respectively. Aβ total peptides are measured using a sandwich ELISA.
Tabular Results of A1142 Assays Conducted on Compounds of Examples 5-102. Assays are Aβ42 IC50 (nM).

IC50 [nM]	SMILES
95	COc1nc(-c2cc(C)c(N[C@@H](C)c3ccccn3)nn2)ccc1-n1cnc(C)c1 [Example 67, (S)-6-(6-methoxy-5-(4-methyl-1H-imidazol-1-yl)pyridin-2-yl)-4-methyl-N-(1-(pyridin-2-yl)ethyl)pyridazin-3-amine]
80	COc1nc(-c2cc(C)c(N[C@H](C)c3ccccc3)nn2)ccc1-n1cnc(C)c1 [Example 68, (R)-6-(6-methoxy-5-(4-methyl-1H-imidazol-1-yl)pyridin-2-yl)-4-methyl-N-(1-phenylethyl)pyridazin-3-amine]
4.5	COc1nc(-c2cc(C)c(N[C@@H](C)c3ccc(F)cc3C)nn2)ccc1-n1cnc(C)c1 [Example 69, (S)—N-(1-(4-fluoro-2-methylphenyl)ethyl)-6-(6-methoxy-5-(4-methyl-1H-imidazol-1-yl)pyridin-2-yl)-4-methylpyridazin-3-amine]
425	COc1nc(-c2cc(C)c(NC3CC3)nn2)ccc1-n1cnc(C)c1 [Example 70, N-cyclopropyl-6-(6-methoxy-5-(4-methyl-1H-imidazol-1-yl)pyridin-2-yl)-4-methylpyridazin-3-amine]
22	COc1nc(-c2cc(C)c(N[C@@H](CO)c3ccc(F)cc3)nn2)ccc1-n1cnc(C)c1 [Example 71, (R)-2-(4-fluorophenyl)-2-((6-(6-methoxy-5-(4-methyl-1H-imidazol-1-yl)pyridin-2-yl)-4-methylpyridazin-3-yl)amino)ethanol]
3.5	COc1nc(-c2cc(C)c(N[C@@H](C)c3c(F)cc(F)cc3F)nn2)ccc1-n1cnc(C)c1 [Example 75, (S)-6-(6-methoxy-5-(4-methyl-1H-imidazol-1-yl)pyridin-2-yl)-4-methyl-N-(1-(2,4,6-trifluorophenyl)ethyl)pyridazin-3-amine]
29	COc1nc(-c2cc(C)c(N[C@@H](C)C(C)(C)C)nn2)ccc1-n1cnc(C)c1 [Example 76, (S)—N-(3,3-dimethylbutan-2-yl)-6-(6-methoxy-5-(4-methyl-1H-imidazol-1-yl)pyridin-2-yl)-4-methyl pyridazin-3-amine]
27	COc1nc(-c2cc(C)c(N[C@@H](C)c3ccc(C#N)cc3)nn2)ccc1-n1cnc(C)c1 [Example 77, (S)-4-(1-((6-(6-methoxy-5-(4-methyl-1H-imidazol-1-yl)pyridin-2-yl)-4-methylpyridazin-3-yl)amino)ethyl)benzonitrile]
61	COc1nc(-c2cc(C)c(NC3CCCC3)nn2)ccc1-n1cnc(C)c1 [Example 78, N-cyclopentyl-6-(6-methoxy-5-(4-methyl-1H-imidazol-1-yl)pyridin-2-yl)-4-methylpyridazin-3-amine]
7.5	CCC[C@H](Nc1nnc(-c2ccc(-n3cnc(C)c3)c(OC)n2)cc1C)c1ccc(F)cc1 [Example 79, (S)—N-(1-(4-fluorophenyl)butyl)-6-(6-methoxy-5-(4-methyl-1H-imidazol-1-yl)pyridin-2-yl)-4-methylpyridazin-3-amine]
1100	COc1nc(-c2cc(C)c(N[C@H](CO)c3ccc(F)cc3)nn2)ccc1-n1cnc(C)c1 [Example 80, (S)-2-(4-fluorophenyl)-2-((6-(6-methoxy-5-(4-methyl-1H-imidazol-1-yl)pyridin-2-yl)-4-methylpyridazin-3-yl)amino)ethanol]
27	COc1nc(-c2cc(C)c(NC3CCCCC3)nn2)ccc1-n1cnc(C)c1 [Example 81, N-cyclohexyl-6-(6-methoxy-5-(4-methyl-1H-imidazol-1-yl)pyridin-2-yl)-4-methylpyridazin-3-amine]
3.5	COc1nc(-c2cc(C)c(N[C@@H](C)c3ccc(F)cc3C(F)(F)F)nn2)ccc1-n1cnc(C)c1 [Example 82, (S)—N-(1-(4-fluoro-2-(trifluoromethyl)phenyl)ethyl)-6-(6-methoxy-5-(4-methyl-1H-imidazol-1-yl)pyridin-2-yl)-4-methylpyridazin-3-amine]
27	COc1nc(-c2cc(C)c(N[C@@H]3C[C@H]3c3ccc(F)c(F)c3)nn2)ccc1-n1cnc(C)c1 [Example 83, N-((1R,2S)-2-(3,4-difluorophenyl)cyclopropyl)-6-(6-methoxy-5-(4-methyl-1H-imidazol-1-yl)pyridin-2-yl)-4-methylpyridazin-3-amine]

More lines, now with the values behind:

SMILES	IC50 [nM]
COc1cc([C@H](C)Nc2nnc(-c3ccc(-n4cnc(C)c4)c(OC)n3)cc2C)ccc1F [Example 47, (S)—N-(1-(4-fluoro-3-methoxyphenyl)ethyl)-6-(6-methoxy-5-(4-methyl-1H-imidazol-1-yl)pyridin-2-yl)-4-methylpyridazin-3-amine]	15
COc1nc(-c2cc(C)c(N[C@@H](C)c3cccc(C)c3)nn2)ccc1-n1cnc(C)c1 [Example 48, (S)-6-(6-methoxy-5-(4-methyl-1H-imidazol-1-yl)pyridin-2-yl)-4-methyl-N-(1-(m-tolyl)ethyl)pyridazin-3-amine]	6.3
COc1nc(-c2cc(C)c(N[C@@H](C)c3cccc(C(F)(F)F)c3)nn2)ccc1-n1cnc(C)c1 [Example 49, (S)-6-(6-methoxy-5-(4-methyl-1H-imidazol-1-yl)pyridin-2-yl)-4-methyl-N-(1-(3-(trifluoromethyl)phenyl)ethyl)pyridazin-3-amine]	7
COc1nc(-c2cc(C)c(N[C@@H](C)c3ccc(F)c(C)c3)nn2)ccc1-n1cnc(C)c1 [Example 51, (S)—N-(1-(4-fluoro-3-methylphenyl)ethyl)-6-(6-methoxy-5-(4-methyl-1H-imidazol-1-yl)pyridin-2-yl)-4-methylpyridazin-3-amine]	8.3
COc1nc(-c2cc(C)c(N[C@@H](C)c3cc(F)c(F)c(F)c3)nn2)ccc1-n1cnc(C)c1 [Example 52, (S)-6-(6-methoxy-5-(4-methyl-1H-imidazol-1-yl)pyridin-2-yl)-4-methyl-N-(1-(3,4,5-trifluorophenyl)ethyl)pyridazin-3-amine]	5
COc1nc(-c2cc(C)c(N[C@@H](C)c3ccc(F)c(C(F)(F)F)c3)nn2)ccc1-n1cnc(C)c1 [Example 53, (S)—N-(1-(4-fluoro-3-(trifluoromethyl)phenyl)ethyl)-6-(6-methoxy-5-(4-methyl-1H-imidazol-1-yl)pyridin-2-yl)-4-methylpyridazin-3-amine]	9.8
COc1nc(-c2cc(C)c(N[C@@H](C)c3ccccc3C)nn2)ccc1-n1cnc(C)c1 [Example 55, (S)-6-(6-methoxy-5-(4-methyl-1H-imidazol-1-yl)pyridin-2-yl)-4-methyl-N-(1-(o-tolyl)ethyl)pyridazin-3-amine]	3.3
COc1nc(-c2cc(C)c(N[C@@H](C)c3ccccc3C(F)(F)F)nn2)ccc1-n1cnc(C)c1 [Example 56, (S)-6-(6-methoxy-5-(4-methyl-1H-imidazol-1-yl)pyridin-2-yl)-4-methyl-N-(1-(2-(trifluoromethyl)phenyl)ethyl)pyridazin-3-amine]	3
COc1nc(-c2cc(C)c(N[C@H](c3ccc(F)cc3)C(C)C)nn2)ccc1-n1cnc(C)c1 [Example 57, (S)—N-(1-(4-fluorophenyl)-2-methylpropyl)-6-(6-methoxy-5-(4-methyl-1H-imidazol-1-yl)pyridin-2-yl)-4-methylpyridazin-3-amine]	4
COc1nc(-c2cc(C)c(N[C@@H](C)C3CCCCC3)nn2)ccc1-n1cnc(C)c1 [Example 58, (S)—N-(1-cyclohexylethyl)-6-(6-methoxy-5-(4-methyl-1H-imidazol-1-yl)pyridin-2-yl)-4-methylpyridazin-3-amine]	12
COc1nc(-c2cc(C)c(N[C@@H](C)c3ccncc3)nn2)ccc1-n1cnc(C)c1 [Example 59, (S)-6-(6-methoxy-5-(4-methyl-1H-imidazol-1-yl)pyridin-2-yl)-4-methyl-N-(1-(pyridin-4-yl)ethyl)pyridazin-3-amine]	778
COc1nc(-c2cc(C)c(NC3(c4ccc(F)cc4)CC3)nn2)ccc1-n1cnc(C)c1 [Example 60, N-(1-(4-fluorophenyl)cyclopropyl)-6-(6-methoxy-5-(4-methyl-1H-imidazol-1-yl)pyridin-2-yl)-4-methylpyridazin-3-amine]	12
COc1nc(-c2cc(C)c(N[C@@H](C)C(C)C)nn2)ccc1-n1cnc(C)c1 [Example 61, (S)-6-(6-methoxy-5-(4-methyl-1H-imidazol-1-yl)pyridin-2-yl)-4-methyl-N-(3-methylbutan-2-yl)pyridazin-3-amine]	27
COC[C@H](C)Nc1nnc(-c2ccc(-n3cnc(C)c3)c(OC)n2)cc1C [Example 62, (S)-6-(6-methoxy-5-(4-methyl-1H-imidazol-1-yl)pyridin-2-yl)-N-(1-methoxypropan-2-yl)-4-methylpyridazin-3-amine]	2160
CC[C@H](C)Nc1nnc(-c2ccc(-n3cnc(C)c3)c(OC)n2)cc1C [Example 63, (S)—N-(sec-butyl)-6-(6-methoxy-5-(4-methyl-1H-imidazol-1-yl)pyridin-2-yl)-4-methylpyridazin-3-amine]	79
COc1nc(-c2cc(C)c(N[C@@H](C)CO)nn2)ccc1-n1cnc(C)c1 [Example 64, (S)-2-((6-(6-methoxy-5-(4-methyl-1H-imidazol-1-yl)pyridin-2-yl)-4-methylpyridazin-3-yl)amino) propan-1-ol]	> 10000
COc1nc(-c2cc(C)c(N[C@H](C)C(C)C)nn2)ccc1-n1cnc(C)c1 [Example 66, (R)-6-(6-methoxy-5-(4-methyl-1H-imidazol-1-yl)pyridin-2-yl)-4-methyl-N-(3-methylbutan-2-yl)pyridazin-3-amine]	53
